According to patent US11377442B2, “Small molecule agonists and antagonists of NR2F6 activity” (ZANDER THERAPEUTICS, INC., priority 2016, dated 2022):
Read-outs that look alike come from different tables or passages of the source.

Columns and labels:
Assay type in all cases: cell-based
[1] = target: T1, ERα (Homo sapiens, UniProt P03372); assay: Counterscreening, Firefly signal with ERα transient transfection (Firefly_ERa); conditions: 10 uM
T1 construct: expressed in transfected cells
T1 sequence (P03372 1-595): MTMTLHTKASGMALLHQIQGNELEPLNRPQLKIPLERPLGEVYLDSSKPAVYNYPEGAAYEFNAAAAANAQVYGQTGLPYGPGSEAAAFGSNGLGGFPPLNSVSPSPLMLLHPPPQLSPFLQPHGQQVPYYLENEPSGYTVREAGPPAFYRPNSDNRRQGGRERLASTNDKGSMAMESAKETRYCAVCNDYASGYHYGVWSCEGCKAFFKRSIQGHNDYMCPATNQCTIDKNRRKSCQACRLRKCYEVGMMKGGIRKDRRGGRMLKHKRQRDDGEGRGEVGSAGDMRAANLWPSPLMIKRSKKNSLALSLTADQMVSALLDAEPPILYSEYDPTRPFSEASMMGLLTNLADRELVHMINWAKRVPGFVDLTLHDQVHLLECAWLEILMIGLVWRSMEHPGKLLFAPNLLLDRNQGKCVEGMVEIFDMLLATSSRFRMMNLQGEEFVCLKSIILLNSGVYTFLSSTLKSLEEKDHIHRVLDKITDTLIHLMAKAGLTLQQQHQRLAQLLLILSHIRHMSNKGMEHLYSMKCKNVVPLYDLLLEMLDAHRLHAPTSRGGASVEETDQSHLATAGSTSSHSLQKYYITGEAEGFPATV
Description: The methodology for screening candidate compounds as NR2F6 agonists was as follows: For primary screening, hit criteria was ACT %>DMSO control+5*SD (DSO control) at 10 μM, or any compound with S/B>2. For rescreening, hit criteria was ACT %>DMSO control+3*SD (DSO control) in each replicate at 10 μM. For counterscreening, hit criteria was mean ACT<DMSO control+3*SD (DMSO control) with ERα transient transfection in duplicate at 10 μM.

[2] = target: T1, ERα; assay: as above
[3] = target: T2, NR2F6 (Homo sapiens, UniProt P10588); assay: NR2F6 agonist screening, Firefly signal cmpd/DMSO
T2 construct: expressed in transfected cells; also transient transfection
T2 sequence (P10588 1-404): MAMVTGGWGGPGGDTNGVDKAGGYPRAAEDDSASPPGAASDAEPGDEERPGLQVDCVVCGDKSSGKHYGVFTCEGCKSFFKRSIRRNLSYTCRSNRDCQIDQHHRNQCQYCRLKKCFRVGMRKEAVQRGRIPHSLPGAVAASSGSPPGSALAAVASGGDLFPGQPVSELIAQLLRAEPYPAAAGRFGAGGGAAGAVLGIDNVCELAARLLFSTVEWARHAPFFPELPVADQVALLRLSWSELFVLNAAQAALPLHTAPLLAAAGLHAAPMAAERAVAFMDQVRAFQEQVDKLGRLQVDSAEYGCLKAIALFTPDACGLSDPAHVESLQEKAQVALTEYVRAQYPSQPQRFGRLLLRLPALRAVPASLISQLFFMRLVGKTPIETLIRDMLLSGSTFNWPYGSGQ

[4] = system: Renilla_ERa; assay: Renilla signal in ERα counterscreen (Renilla_ERa); conditions: read-out: Renilla ERalpha transient, cmpd/DMSO (mean)
[5] = system: Renilla; assay: Renilla signal in NR2F6 agonist screening, cmpd/DMSO; conditions: Renilla, read-out: Renilla F4, cmpd/DMSO (mean)

Row | SMILES | Firefly ERalpha transient, cmpd/DMSO (mean) [1] | Firefly ERalpha transient, cmpd/DMSO (mean) ([2]; 2 uM) | Firefly ERalpha transient, cmpd/DMSO (mean) ([2]; 40 uM) | Firefly F4, cmpd/DMSO (mean) ([3]; 2 uM, clone F4) | Firefly F4, cmpd/DMSO (mean) ([3]; 10 uM, clone F4) | Firefly F4, cmpd/DMSO (mean) ([3]; 40 uM, clone F4) | fold induction at 2 µM [4] | fold induction at 10 µM [4] | fold induction at 40 µM [4] | fold induction at 2 µM ([5]; clone F4) | fold induction at 10 µM ([5]; clone F4) | fold induction at 40 µM ([5]; clone F4) | Firefly ERalpha transient, cmpd/DMSO (mean) ([1]; Table 15) | Firefly ERalpha transient, cmpd/DMSO (mean) ([2]; Table 15, 2 uM) | Firefly ERalpha transient, cmpd/DMSO (mean) ([2]; Table 15, 40 uM) | Firefly F4, cmpd/DMSO (mean) ([3]; Table 15, 2 uM) | Firefly F4, cmpd/DMSO (mean) ([3]; Table 15, 10 uM) | Firefly F4, cmpd/DMSO (mean) ([3]; Table 15, 40 uM) | fold induction at 2 µM ([4]; Table 15) | fold induction at 10 µM ([4]; Table 15) | also measured
1 | N#Cc1c(C(F)(F)F)nc2ccc(Oc3ccccc3)cc2c1N1CCNCC1 [Compound Z51] | 0.8 | 1.3 | 0.4 | 0.6 | 0.6 | 0.7 | 1.1 | 0.9 | 0.3 | 0.8 | 0.7 | 0.3 |  |  |  |  |  |  |  |  | 
2 | N#Cc1c(C(F)(F)F)nc2ccc(Oc3ccccc3)cc2c1NCCc1ccc(Cl)cc1 [Compound Z52] | 0.4 | 0.7 | 0.7 | 0.6 | 0.7 | 0.7 | 1.1 | 0.8 | 0.7 | 0.8 | 0.5 | 0.6 |  |  |  |  |  |  |  |  | 
3 | CNc1c(C#N)c(C(F)(F)F)nc2ccc(Oc3ccccc3)cc12 [Compound Z53] | 0.3 | 1.0 | 0.4 | 0.8 | 0.4 | 0.5 | 1 | 0.6 | 0.5 | 0.7 | 0.7 | 0.6 |  |  |  |  |  |  |  |  | 
4 | CCOC(=O)c1cnc2c(C)cc(C)cc2c1NCCCN [Compound Z58] |  |  |  |  |  |  |  |  |  |  |  |  | 6.5 | 1.5 | 0.8 | 0.9 | 4.5 | 0.8 | 1.2 | 1.1 | fold induction at 40 µM ([4]; Table 15): 0.7; fold induction at 2 µM ([5]; Table 15): 1.3; fold induction at 10 µM ([5]; Table 15): 1.2; fold induction at 40 µM ([5]; Table 15): 0.8
5 | CCOC(=O)c1cnc2c(C)cc(C)cc2c1NCCCN1CCCC1 [Compound Z61] |  |  |  |  |  |  |  |  |  |  |  |  | 9.1 | 3.0 | 0.7 | 1.7 | 2.5 | 0.8 | 1.4 | 0.8 | fold induction at 40 µM ([4]; Table 15): 0.7; fold induction at 2 µM ([5]; Table 15): 1.3; fold induction at 10 µM ([5]; Table 15): 0.5; fold induction at 40 µM ([5]; Table 15): 0.6
